Test results: patent US20250368638A1, “BICYCLIC INHIBITORS OF NICOTINAMIDE […], COMPOSITIONS AND USES THEREOF” (President and Fellows of Harvard College, priority 2021, published 2025)

Experiment: Permeability assay in Caco-2 cells
Details: human
Method: Preparation of Caco-2 Cells: 50 μL and 25 mL of cell culture medium were added to each well of the Transwell insert and reservoir, respectively. And then the HTS transwell plates were incubated at 37° C., 5% CO2 for 1 hour before cell seeding. […] Cell culture medium was replaced every other day, beginning no later than 24 hours after initial plating.
Preparation of Stock Solutions: The stock solutions of control and test compounds were prepared in DMSO at the concentration of 10 mM. Digoxin, Prazosin and propranolol were used as control compounds in this assay.
Assay Procedures: The Caco-2 plate was removed from the incubator and washed twice with pre-warmed HBSS (10 mM HEPES, pH 7.4), and then incubated at 37° C. for 30 minutes. The stock solutions of controls and Test compounds were diluted in DMSO to get 1 mM solutions and then diluted with HBSS (10 mM HEPES, pH 7.4) to get 5 μM working solutions. The final concentration of DMSO in the incubation system was 0.5%. To determine the rate of drug transport in the apical to basolateral direction. Add 125 μL of the test compounds to the Transwell insert (apical compartment), and transfer 50 μL sample (DO sample) immediately from the apical compartment to a new 96-well plate. Fill the wells in the receiver plate (basolateral compartment) with 235 μL of HBSS (10 mM HEPES, pH 7.4). To determine the rate of drug transport in the basolateral to apical direction. Add 285 μL of the test compounds to the receiver plate wells (basolateral compartment), and transfer 50 μL sample (DO sample) immediately from the basolateral compartment to a new 96-well plate. Fill the Transwell insert (apical compartment) with 75 μL of HBSS (10 mM HEPES, pH 7.4). Time 0 samples were prepared by transferring 50 μL of 5 μM working solution to wells of the 96-deepwell plate, followed by the addition of 200 μL cold acetonitrile containing appropriate internal standards (100 nM alprazolam, 200 nM labetalol, 200 nM caffeine and 200 nM diclofenac). The plates were incubated at 37° C. for 2 hours. […] Samples were vortexed for 5 minutes and then centrifuged at 3,220 g for 40 minutes. An aliquot of 100 μL of the supernatant was mixed with 100 μL of ultra-pure water to use for LC-MS/MS analysis. To determine the Lucifer Yellow leakage after 2 hour transport period, stock solution of Lucifer yellow was prepared in water and diluted with HBSS (10 mM HEPES, pH 7.4) to reach the final concentration of 100 μM. 100 μL of the Lucifer yellow solution was added to each Transwell insert (apical compartment), followed by filling the wells in the receiver plate (basolateral compartment) with 300 μL of HBSS (10 mM HEPES, pH 7.4). The plates were incubated at 37° C. for 30 minutes. 80 μL samples were removed directly from the apical and basolateral wells (using the basolateral access holes) and transferred to wells of new 96 wells plates.

Q: Which Papp A→B at 2 h, 5 μM (Caco-2, pH 7.4) does the source give for `C[C@@H]1Cc2cc(C(N)=O)cnc2N1` [Compound 11, (2R)-2-methyl-2,3-dihydro-1H-pyrrolo[2,3-b]pyridine-5-carboxamide] here?
A: The Papp A→B at 2 h, 5 μM was 27.5 ×10⁻⁶ cm/s.

Q: What about the Papp B→A at 2 h, 5 μM (Caco-2, pH 7.4) of the same molecule?
A: The Papp B→A at 2 h, 5 μM was 21.8 ×10⁻⁶ cm/s.

Q: What about the efflux ratio at 2 h, 5 μM (Caco-2, pH 7.4) of the same molecule?
A: Its efflux ratio at 2 h, 5 μM is 0.79.

Q: What about the recovery at 2 h, 5 µM (Caco-2, pH 7.4, Recovery (%) AP-BL) of the same molecule?
A: Its recovery at 2 h, 5 µM is 102%.

Q: What about the recovery at 2 h, 5 µM (Caco-2, pH 7.4, Recovery (%) BL-AP) of the same molecule?
A: Its recovery at 2 h, 5 µM is 106%.
